# Reference: US20040265341A1, “Prevention of uveitis” (Kings College London, priority 2003, published 2004)
# Read-outs that look alike come from different tables or passages of the source.
# What was measured:
# uveitis [1] = assay: Prevention of experimental uveitis by oral administration in the rat uveitis model; format: in vivo; conditions: oral administration to experimental animals; conjugate vs peptide alone p<0.0001
# PBMC [2] = format: cell-based, human
# PBMC [3] = format: cell-based, human; conditions: for concentration of IFN-γ: relapsed group
# uveitis [4] = conditions: cited from earlier work
# [5] = before tolerising regime, 3 patients with relapsing uveitis
sequence,measurement,setting,value
QPHDLGKVGEVIVTKD [p336-351],development of uveitis,uveitis [1],65.8%
same,development of uveitis (animals with uveitis / total),uveitis [1],48/73
same,"stimulation index (SI), individual patients",PBMC [2]; [5],> 2
same,"stimulation index (SI), mean±sem",PBMC [2]; [5],4.1±0.8
same,"stimulation index (SI), mean±sem","PBMC [2]; before tolerising regime, 5 patients in whom uveitis was prevented",1.25±0.1
same,"stimulation index (SI), mean","PBMC [2]; prevented group, 3 months after tolerising regime started, immunosuppressive drugs tailed off",2.3±0.6
same,"stimulation index (SI), mean","PBMC [2]; relapsing group, 1-2 months after tolerising regime initiated, immunosuppressive doses decreased",23.2 (±14.8)
same,production of IFN-γ,"PBMC [3]; patients in whom uveitis was prevented, before and 3 months after immunosuppressive drugs withdrawn",negligible
same,TNF-α concentrations,PBMC [3]; protected patients,negligible
same,concentration of IFN-γ,"PBMC [3]; 1-2 months after tolerisation initiated, unstimulated 1665±1111 pg/ml",4723 (±2639) pg/ml
same,concentration of IFN-γ,"PBMC [3]; before tolerisation, unstimulated 504±411 pg/ml",758 ± 636 pg/mL
same,TNF-α concentrations,"PBMC [3]; relapsing patients, mostly 1-2 months after tolerisation",increased levels
same,induction of uveitis,"uveitis [4]; Lewis rats, subcutaneously with an adjuvant, Uchio et al 1998",uveitis can be induced
same,induction of uveitis or tolerance,"uveitis [4]; oral or nasal administration, Hu et al 1998",induced uveitis instead of tolerance
same,uveitogenicity when administered to rats,"uveitis [4]; rats, Stanford et al 1994",most effective
